Patent US7517998B2, “Non nucleoside reverse transcriptase inhibitors” (priority 2004, dated 2009)

Biological target: T1, K103NNY181C mutant reverse transcriptase (Human immunodeficiency virus type 1 group M subtype B, UniProt P04585, K690N/Y768C)
T1 construct: mutations that occur in the reverse transcriptase segment of the pol gene
Experiment: Reverse transcriptase enzymatic assay (PicoGreen), K103N/Y181C mutant RT
Type: biochemical, HIV-1
Settings: enzymatic assay of Example 24
Description: The enzymatic assay employed is described as follows: The reverse transcriptase (RT) enzyme assay has been adapted to a 96-well microtiter plate format and uses PicoGreen™ as a fluorescent intercalator. More explicitly, the HIV-1 RT enzyme was thawed and appropriately diluted into Tris/HCl 50 mM pH 7.8 containing NaCl 60 mM, MgCl2.6H2O 2 mM, DTT 6 mM, GSH 2 mM and 0.02% w/v Chaps to give ≈10 nM enzyme. To 10 μL of this enzyme solution was added 10 μL of inhibitor solution (40 μM to 2.032 nM inhibitor in the same assay buffer as above containing 4% v/v DMSO). The plate was pre-incubated for 15 minutes at room temperature before proceeding to the next step. In this pre-incubation step, the highest and lowest inhibitor concentrations were 20 μM and 1.016 nM respectively and the concentration of DMSO was 2% v/v. Then the enzymatic reaction was initiated by addition of 20 μL of substrate solution. The final reaction mixture contained Tris/HCl 50 mM pH 7.8, NaCl 60 mM, MgCl2.6H2O 2 mM, DTT 6 mM, GSH 2 mM, CHAPS 0.02% w/v, DMSO 1% v/v, poly rC 45 nM, dG15 4.5 nM, dGTP 3.6 μM, and 2.5 nM enzyme. In this incubation step, the highest and lowest inhibitor concentrations were 10 μM and 0.508 nM respectively. After addition of the substrate cocktail, the plate was covered with a plastic seal and incubated for 50 minutes at 37° C. in a dry incubator. The reaction was then quenched by addition of 5 μL of EDTA 0.5 M. The plate was shaken for 30 seconds at medium speed and incubated for 5 minutes at room temperature. Then 160 μL of PicoGreen™ 1:400 dilution from commercial stock (diluted in Tris 20 mM pH 7.5 with EDTA 1 mM) was added and the plate was shaken for 30 seconds and incubated for 10 minutes at room temperature. The plate was then analyzed using a POLARstar Galaxy fluorometer (BMG Labtechnologies) with λex and λem of 485 nm and 520 nm respectively. Each well was read for 1.25 second. Each row contained at its extremities a blank and a control well.

[1] = IC50 mut (nM), mutant (K103N/Y181C) reverse transcriptase
[2] = IC50 mut, K103N/Y181C mutant reverse transcriptase
[3] = IC50 mut, mutant reverse transcriptase

| SMILES | IC50 [2] [nM] | IC50 [3] [nM] | further results |
| --- | --- | --- | --- |
| COc1ccc(CC(=O)Nc2ccc(NC(=O)CSc3nnnn3-c3ccc(C(C)(C)C)cc3Cl)c(Cl)c2)cc1 [Compound 7015] | – | – | IC50 [1]: 189 nM |
| CC(C)(C#Cc1ccc(NC(=O)CSc2nnnn2-c2ccc(C(C)(C)C)cc2Cl)c(Cl)c1)C(=O)O [Compound 4011] | 25 | – | – |
| CC(C)(C)c1ccc(-n2nnnc2SCC(=O)Nc2ccc(C#CCCCO)cc2Cl)c(Cl)c1 [Compound 4004] | 16 | – | – |
| CC(C)(C#Cc1ccc(NC(=O)CSc2nnnn2-c2ccc(C3CC3)cc2Cl)c(Cl)c1)NC(=O)c1cnccn1 [Compound 4111] | 8.6 | – | – |
| O=C(COc1ccc(NC(=O)CSc2nnnn2-c2ccc(C3CC3)cc2Cl)c(Cl)c1)NCCc1cccnc1 [Compound 5035] | – | 258 | – |
| CCS(=O)(=O)NC(=O)C(C)(C)C#Cc1ccc(NC(=O)CSc2nnnn2-c2ccc(C3CC3)cc2Cl)c(Cl)c1 [Compound 4197] | 57.5 | – | – |
| O=C(CSc1nnnn1-c1ccc(C2CC2)cc1Cl)Nc1ccc(-c2ccc(OCCN3CCCCC3)cc2)c(F)c1Cl [Compound 2051] | – | 30.5 | – |
| CC(C)(C)c1cc(Cl)c(-n2nnnc2SCC(=O)Nc2ccc(-c3ccc(OCC(=O)O)cc3)cc2Cl)c(Cl)c1 [Compound 2018] | – | 12 | – |
| Cc1nnc(SCC(=O)Nc2ccc(-c3ccc(OCCN4CCCC4)cc3)cc2Cl)n1-c1ccc(C2CC2)cc1Cl [Compound 1014] | – | 81 | – |
| CNC(=O)c1ccc(NC(=O)CSc2nnnn2-c2ccc(C)cc2Cl)c(Cl)c1 [Compound 3007] | – | 290 | – |
| CC(C)(C#Cc1ccc(NC(=O)CSc2nnnn2-c2cc(C(F)(F)F)cc(C3CC3)c2Cl)c(Cl)c1F)NC(=O)CN1CCNCC1 [Compound 4236] | 250 | – | – |
| O=C(CSc1nnnn1-c1cc(C(F)(F)F)ccc1Cl)Nc1ccc(-c2ccc(OCCN3CCCCC3)cc2)cc1Cl [Compound 2049] | – | 54 | – |
| CC(C)(C)c1ccc(-n2nnnc2SCC(=O)Nc2ccc(-c3ccc(OCCN4CCC(C(=O)O)CC4)cc3)cc2Cl)c(Cl)c1 [Compound 2040] | – | 36 | – |
| CC(C)(C#Cc1ccc(NC(=O)CSc2nnnn2-c2ccc(C3CC3)cc2Cl)c(Cl)c1)NC(=O)CNCCCn1ccnc1 [Compound 4127] | 20.5 | – | – |
| CC(C)(C#Cc1ccc(NC(=O)CSc2nnnn2-c2cc(C(C)(C)C)cc(Br)c2Cl)c(Cl)c1)NC(=O)CNc1cc[n+]([O-])cc1 [Compound 4225] | 162 | – | – |
| CC(C)(C#Cc1ccc(NC(=O)CSc2nnnn2-c2cc(C(C)(C)C)cc(Br)c2Cl)c(Cl)c1)C(=O)O [Compound 4219] | 97 | – | – |
| CC(C)(C)c1ccc(-n2nnnc2SCC(=O)Nc2ccc(-c3ccc(C(=O)O)s3)cc2Cl)c(Cl)c1 [Compound 3030] | – | 28 | – |
| CC(C)(C#Cc1ccc(NC(=O)CSc2nnnn2-c2ccc(C(C)(C)C)cc2Cl)c(Cl)c1)OCC(=O)NCCC(=O)O [Compound 4055] | 15 | – | – |
| CC(C)(C#Cc1ccc(NC(=O)CSc2nnnn2-c2ccc(C3CC3)cc2Cl)c(Cl)c1)NC(=O)C1CC1 [Compound 4079] | 6.8 | – | – |
| CC(C)(C#Cc1ccc(NC(=O)CSc2nnnn2-c2cc(C(F)(F)F)ccc2Cl)c(Cl)c1)NC(=O)c1ncccn1 [Compound 4139] | 20.5 | – | – |
| CC(C)(C#Cc1ccc(NC(=O)CSc2nnnn2-c2cc(C(C)(C)C)cc(Br)c2Cl)c(Cl)c1)NC(=O)CN1CCC(C(=O)O)CC1 [Compound 4226] | 52 | – | – |
| CC(C)(C)c1ccc(-n2nnnc2SCC(=O)Nc2ccc(NS(=O)(=O)c3ccccc3)cc2Cl)c(Cl)c1 [Compound 7003] | – | – | IC50 [1]: 607 nM |
| COC(=O)c1ccc(-c2ccc(NC(=O)CSc3nnnn3-c3ccc(C(C)(C)C)cc3Cl)c(Cl)c2)cc1 [Compound 2008] | – | 39 | – |
| CC(C)(C)c1ccc(-n2nnnc2SCC(=O)Nc2ccc(C(=O)Nc3ccc(CCC(=O)O)cc3)cc2Cl)c(Cl)c1 [Compound 6031] | – | 29.5 | – |

| SMILES | IC50 [2] [nM] | IC50 [3] [nM] | further results |
| --- | --- | --- | --- |
| COc1ccccc1CC(=O)Nc1ccc(NC(=O)CSc2nnnn2-c2ccc(C(C)(C)C)cc2Cl)c(Cl)c1 [Compound 7018] | – | – | IC50 [1]: 100 nM |
| O=C(COc1ccc(NC(=O)CSc2nnnn2-c2ccc(C3CC3)cc2Cl)c(Cl)c1)NCCc1ccc[n+]([O-])c1 [Compound 5039] | – | 479 | – |
| CC(C)(C)c1ccc(-n2nnnc2SCC(=O)Nc2ccc(NC(=O)Cc3ccc[n+]([O-])c3)cc2Cl)c(Cl)c1 [Compound 7048] | – | – | IC50 [1]: 97 nM |
| CC(C)(C)c1ccc(-n2nnnc2SCC(=O)Nc2ccc(OCC(=O)N3CCOCC3)cc2Cl)c(Cl)c1 [Compound 5004] | – | 41 | – |
| CC(C)(C)c1ccc(-n2nnnc2SCC(=O)Nc2ccc(OCC(=O)NC3CCOCC3)cc2Cl)c(Cl)c1 [Compound 5030] | – | 116 | – |
| Cc1cc(F)c(-n2nnnc2SCC(=O)Nc2ccc(-c3ccc(C(C)(C)C(=O)O)cc3)cc2Cl)c(Cl)c1 [Compound 2026] | – | 48 | – |
| CCOC(=O)c1ccc(NC(=O)Nc2ccc(NC(=O)CSc3nnnn3-c3ccc(C(C)(C)C)cc3Cl)c(Cl)c2)cc1 [Compound 7006] | – | – | IC50 [1]: 74 nM |
| Cc1cc(C)c(-n2nnnc2SCC(=O)Nc2ccc(-c3ccc(CC(=O)O)cc3)cc2Cl)c(Cl)c1 [Compound 2021] | – | 20 | – |
| CC(C)(C#Cc1ccc(NC(=O)CSc2nnnn2-c2cc(C(F)(F)F)c(C3CC3)cc2Cl)c(Cl)c1)C(=O)O [Compound 4211] | 482 | – | – |
| CC(C)(C)c1ccc(-n2nnnc2SCC(=O)Nc2ccc(NS(=O)(=O)c3cccs3)cc2Cl)c(Cl)c1 [Compound 7007] | – | – | IC50 [1]: 331 nM |
| CC(C)(C)c1ccc(-n2nnnc2SCC(=O)Nc2ccc(OCC(=O)NCCO)cc2Cl)c(Cl)c1 [Compound 5015] | – | 158 | – |
| CN1CCN(C(=O)COc2ccc(NC(=O)CSc3nnnn3-c3ccc(C(C)(C)C)cc3Cl)c(Cl)c2)CC1 [Compound 5003] | – | 48 | – |
| CN(C)c1ccc(NC(=O)c2ccc(NC(=O)CSc3nnnn3-c3ccc(C(C)(C)C)cc3Cl)c(Cl)c2)cc1 [Compound 6012] | – | 47 | – |
| C=C(C)C#Cc1ccc(NC(=O)CSc2nnnn2-c2ccc(C3CC3)cc2Cl)c(Cl)c1 [Compound 4112] | 54 | – | – |
| CC(C)(C)c1ccc(-n2nnnc2SCC(=O)Nc2ccc(OCC(=O)NCCC(=O)O)cc2Cl)c(Cl)c1 [Compound 5025] | – | 124 | – |
| COC(=O)Cc1cccc(-c2ccc(NC(=O)CSc3nnnn3-c3ccc(C)cc3Cl)c(Cl)c2)c1 [Compound 3002] | – | 120 | – |
| Cc1cc(NC(=O)c2ccc(NC(=O)CSc3nnnn3-c3ccc(C(C)(C)C)cc3Cl)c(Cl)c2)ccc1/C=C/C(=O)O [Compound 6032] | – | 20.5 | – |
| CC(C)(C#Cc1ccc(NC(=O)CSc2nnnn2-c2cc(C(F)(F)F)ccc2Cl)c(Cl)c1F)NC(=O)c1cc[n+]([O-])cc1 [Compound 4164] | 18.5 | – | – |
| CC(C)(C#Cc1ccc(NC(=O)CSc2nnnn2-c2ccc(C(C)(C)C)cc2Cl)c(Cl)c1)OCC(=O)Nc1cnccn1 [Compound 4040] | 58 | – | – |
| CC(=O)NC(C)(C)C#Cc1ccc(NC(=O)CSc2nnnn2-c2ccc(C3CC3)cc2Cl)c(Cl)c1 [Compound 4080] | 8.45 | – | – |
| CC(C)(C#Cc1ccc(NC(=O)CSc2nnnn2-c2ccc(C3CC3)cc2Cl)c(Cl)c1)OCCN1CCC1 [Compound 4119] | 121 | – | – |
| COc1ccc(Cl)c(-n2nnnc2SCC(=O)Nc2ccc(C#CC(C)(C)C(=O)O)cc2Cl)c1 [Compound 4114] | 200 | – | – |
| CC(C)(COc1ccc(NC(=O)CSc2nnnn2-c2ccc(C3CC3)cc2Cl)c(Cl)c1)C(=O)O [Compound 3046] | – | 105 | – |
| CC(C)(C)c1ccc(-n2nnnc2SCC(=O)Nc2ccc(NS(=O)(=O)Cc3ccccc3)cc2Cl)c(Cl)c1 [Compound 7004] | – | – | IC50 [1]: 272 nM |
